Reference: US20070259875A1, “Triaryl substituted imidazole derivatives and taste-inhibiting uses thereof” (priority 2006, published 2007)

Experiments:
human TRPM5 = target: T1, human TRPM5 (Homo sapiens, UniProt Q9NZQ8); experiment: FLIPR membrane potential dye screening assay, ATP-stimulated, TRPM5-transfected HEK293 cells; format: cell-based; details: maximum percent inhibition at concentrations between 10 μM and 100 μM; HEK293 cells with human TRPM5; 10 μM ATP; versus negative control wells
T1 construct: expressed in transfected cells
T1 sequence (Q9NZQ8 1-1165): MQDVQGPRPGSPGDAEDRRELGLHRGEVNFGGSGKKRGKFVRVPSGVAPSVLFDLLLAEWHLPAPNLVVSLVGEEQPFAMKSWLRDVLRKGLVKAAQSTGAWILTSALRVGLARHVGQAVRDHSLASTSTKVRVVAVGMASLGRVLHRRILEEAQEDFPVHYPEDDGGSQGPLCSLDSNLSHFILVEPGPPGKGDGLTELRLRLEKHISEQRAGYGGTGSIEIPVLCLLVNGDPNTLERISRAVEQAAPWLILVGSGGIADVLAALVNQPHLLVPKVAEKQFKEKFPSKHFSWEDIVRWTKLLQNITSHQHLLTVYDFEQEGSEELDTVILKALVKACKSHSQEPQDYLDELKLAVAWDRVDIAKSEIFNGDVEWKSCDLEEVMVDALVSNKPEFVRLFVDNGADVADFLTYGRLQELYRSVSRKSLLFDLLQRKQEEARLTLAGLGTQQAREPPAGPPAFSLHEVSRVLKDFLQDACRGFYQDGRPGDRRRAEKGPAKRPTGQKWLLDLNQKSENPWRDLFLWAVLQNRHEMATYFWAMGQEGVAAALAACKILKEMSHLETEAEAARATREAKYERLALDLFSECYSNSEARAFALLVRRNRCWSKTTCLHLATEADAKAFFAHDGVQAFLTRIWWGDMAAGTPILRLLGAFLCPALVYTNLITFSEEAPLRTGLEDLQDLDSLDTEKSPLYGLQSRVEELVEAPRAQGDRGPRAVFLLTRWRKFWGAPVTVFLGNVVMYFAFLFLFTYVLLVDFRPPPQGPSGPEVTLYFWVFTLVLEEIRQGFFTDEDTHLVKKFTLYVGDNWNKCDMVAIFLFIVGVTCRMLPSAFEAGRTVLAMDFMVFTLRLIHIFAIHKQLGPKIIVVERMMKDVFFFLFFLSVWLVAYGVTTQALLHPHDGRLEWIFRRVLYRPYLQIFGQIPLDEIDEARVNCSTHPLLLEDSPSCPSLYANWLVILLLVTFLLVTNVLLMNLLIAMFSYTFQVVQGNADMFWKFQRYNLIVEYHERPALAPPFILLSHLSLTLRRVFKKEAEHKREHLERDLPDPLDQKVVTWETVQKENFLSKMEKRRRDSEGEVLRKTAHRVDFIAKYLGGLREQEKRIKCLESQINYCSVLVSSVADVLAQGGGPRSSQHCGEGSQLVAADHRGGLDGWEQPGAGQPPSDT
Method: Modulation of the activity of human taste receptor proteins was measured in live cells on a fluorescent imaging plate reader (FLIPR). The basis of the assay (shown in FIG. 1) is the calcium-dependent activation of the ion channel which occurs via by activation of a G-protein coupled receptor (GPCR). GPCR activation by an appropriate agonist causes a transient increase in intercellular Ca^2+ ion concentration which in turn causes the ion channel to open, allowing an influx of Na^+ ions. This influx leads to a change in the membrane potential of the cell, which can be monitored as a change in the fluorescent signal from voltage-dependent (membrane potential) fluorescent dyes.
A schematic representation of the assay is shown in FIGS. 2(A) and 2(B), where traces of fluorescent response versus time are shown for cells transfected with a plasmid encoding human TRPM5 or cells containing sham plasmid controls.
For the screening assay, the human TRPM5 gene was cloned, HEK293 cells were transfected with a plasmid containing the gene, and a stable, high expression clone was chosen for the screen. Cells were grown in standard media at 37° C. The day before screening, the cells were removed from flasks and added to 384 well clear bottom plates (12K cells in 20 μL/well). On the assay day, 20 μL of membrane potential dye (Part No. R8123, Molecular Devices Corp.) was added to the cells and dye was allowed to be taken up, i.e., loaded, into the cells for 1 hr at 37° C. […] The assay was started by addition of 10 μL of solution from the compound plate into the cell plate. During this process, continuous fluorescent recordings were made simultaneously for all wells. After addition of the compound solution, the tips were automatically washed and 10 μL of a stimulation solution of 60 μM ATP (an agonist for an endogenous purinurgic GPCR), was added to all wells of the cell plate (to give a final concentration of 10 μM ATP). The height of the response was calculated and percent inhibition values, versus negative control wells, was calculated for the test samples.
(§1) Unless otherwise indicated, the data in Table 1 were determined using the assays described above, providing maximum percent inhibition data at concentrations between 10 μM and 100 μM.

[1] = system: GPCR-mediated calcium activation step; experiment: Calcium counterscreen (calcium sensitive dye, ATP stimulation, same cells); format: cell-based; details: maximum percent inhibition at concentrations between 10 μM and 100 μM, Calcium3 dye
Method: Two counterscreen assays were run on separate cell plates utilizing the same cells as described above. In the calcium counterscreen, the cells were loaded with a calcium sensitive dye (Calcium3 Dye, Part no. 8090, Molecular Devices Corp.) and stimulated by ATP to check for compounds that block the GPCR-mediated calcium activation step. In the KCl counterscreen, cells were stimulated with 120 mM KCl (to give a final concentration of 20 mM KCl) instead of ATP to check for compounds that inhibit the membrane potential response by virtue of being non-specific ion channel blockers.
as §1

COC(=O)c1ccc(-c2nc(-c3ccccc3)c(-c3ccccc3)[nH]2)cc1 [Example 1, methyl4-(4,5-diphenyl-1H-imidazol-2-yl)benzoate]
TRPM5 Activity (maximum percent inhibition) (human TRPM5): 79% | Calcium Counterscreen (maximum percent inhibition) [1]: 0%

OCc1ccc(-c2nc(-c3ccccc3)c(-c3ccccc3)[nH]2)cc1 [Example 2, [4-(4,5-diphenyl-1H-imidazol-2-yl)phenyl]methanol]
TRPM5 Activity (maximum percent inhibition) (human TRPM5): 50% | Calcium Counterscreen (maximum percent inhibition) [1]: 0% | melting point: 50 °C

Nc1ccc(-c2nc(-c3ccccc3)c(-c3ccccc3)[nH]2)cc1 [Example 3, 4-(4,5-diphenyl-1H-imidazol-2-yl)aniline]
TRPM5 Activity (maximum percent inhibition) (human TRPM5): 42% | Calcium Counterscreen (maximum percent inhibition) [1]: 0%

Oc1ccc(-c2nc(-c3ccccc3)c(-c3ccccc3)[nH]2)cc1 [Example 4, 4-(4,5-diphenyl-1H-imidazol-2-yl)phenol]
TRPM5 Activity (maximum percent inhibition) (human TRPM5): 51% | Calcium Counterscreen (maximum percent inhibition) [1]: 0%

COC(=O)Nc1ccc(-c2nc(-c3ccccc3)c(-c3ccccc3)[nH]2)cc1 [Example 5, methyl4-(4,5-diphenyl-1H-imidazol-2-yl)phenylcarbamate]
TRPM5 Activity (maximum percent inhibition) (human TRPM5): 19% | Calcium Counterscreen (maximum percent inhibition) [1]: 0%

CC(=O)Nc1ccc(-c2nc(-c3ccccc3)c(-c3ccccc3)[nH]2)cc1 [Example 6, N-[4-(4,5-diphenyl-1H-imidazol-2-yl)phenyl]acetamide]
TRPM5 Activity (maximum percent inhibition) (human TRPM5): 29% | Calcium Counterscreen (maximum percent inhibition) [1]: 0%

N#Cc1ccc(-c2nc(-c3ccccc3)c(-c3ccccc3)[nH]2)cc1 [Example 7, 4-(4,5-diphenyl-1H-imidazol-2-yl)benzonitrile]
TRPM5 Activity (maximum percent inhibition) (human TRPM5): 0% | Calcium Counterscreen (maximum percent inhibition) [1]: 0%

CS(=O)(=O)NCc1ccc(-c2nc(-c3ccccc3)c(-c3ccccc3)[nH]2)cc1 [Example 8, N-[4-(4,5-diphenyl-1H-imidazol-2-yl)benzyl]methanesulfonamide]
TRPM5 Activity (maximum percent inhibition) (human TRPM5): 90% | Calcium Counterscreen (maximum percent inhibition) [1]: 0%

O=C(O)c1ccc(-c2nc(-c3ccccc3)c(-c3ccccc3)[nH]2)cc1 [Example 9, 4-(4,5-diphenyl-1H-imidazol-2-yl)benzoic acid]
TRPM5 Activity (maximum percent inhibition) (human TRPM5): 60% | Calcium Counterscreen (maximum percent inhibition) [1]: 0%

O=[N+]([O-])c1ccc(-c2nc(-c3ccccc3)c(-c3ccccc3)[nH]2)cc1 [Example 10, 2-(4-nitro-phenyl)-4,5-diphenyl-1H-imidazole]
TRPM5 Activity (maximum percent inhibition) (human TRPM5): 100% | Calcium Counterscreen (maximum percent inhibition) [1]: 0%
